Reference: article PMC10657973 (Journal of Pharmaceutical Analysis, 2023)
“Also recorded” adds a separate entry of the source. Blank lines part the entries; values can stand above or below the molecule they belong to.

Tests used:
OAT1 [1] = target: T1, OAT1 (Homo sapiens, UniProt Q4U2R8); experiment: Uptake of UTs in HEK293T-OAT1 cells; type: cell-based; details: 100 μM, 30 min; for uptake of free UT in OAT1-overexpressing cells vs control cells: without HSA
T1 sequence (Q4U2R8 1-563): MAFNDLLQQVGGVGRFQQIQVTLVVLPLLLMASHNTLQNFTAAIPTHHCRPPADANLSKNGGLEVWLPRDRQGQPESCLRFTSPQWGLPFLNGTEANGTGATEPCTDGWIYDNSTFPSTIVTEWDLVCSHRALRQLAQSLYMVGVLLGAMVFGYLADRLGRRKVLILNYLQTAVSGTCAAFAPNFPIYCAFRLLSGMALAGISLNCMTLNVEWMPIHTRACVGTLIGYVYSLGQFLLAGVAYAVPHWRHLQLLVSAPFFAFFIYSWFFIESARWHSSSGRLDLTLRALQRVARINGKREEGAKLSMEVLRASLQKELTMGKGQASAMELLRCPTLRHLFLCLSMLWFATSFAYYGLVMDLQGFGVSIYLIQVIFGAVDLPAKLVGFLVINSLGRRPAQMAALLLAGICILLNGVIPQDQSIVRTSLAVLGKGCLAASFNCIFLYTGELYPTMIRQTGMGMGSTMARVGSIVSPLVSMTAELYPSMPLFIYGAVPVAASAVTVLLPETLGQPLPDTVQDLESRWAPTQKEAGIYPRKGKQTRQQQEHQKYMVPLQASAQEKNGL

OAT3 = target: T2, OAT3 (Homo sapiens, UniProt Q8TCC7); experiment: Uptake of UTs in HEK293T-OAT3 cells; type: cell-based; details: 100 μM, 30 min; for uptake of free UT in OAT3-overexpressing cells vs control cells / uptake of HSA-bound UT in OAT3-overexpressing cells vs control cells: 37 °C; for uptake of free UT in OAT3-overexpressing cells vs control cells: without HSA; for uptake of HSA-bound UT in OAT3-overexpressing cells vs control cells: with HSA
T2 sequence (Q8TCC7 1-542): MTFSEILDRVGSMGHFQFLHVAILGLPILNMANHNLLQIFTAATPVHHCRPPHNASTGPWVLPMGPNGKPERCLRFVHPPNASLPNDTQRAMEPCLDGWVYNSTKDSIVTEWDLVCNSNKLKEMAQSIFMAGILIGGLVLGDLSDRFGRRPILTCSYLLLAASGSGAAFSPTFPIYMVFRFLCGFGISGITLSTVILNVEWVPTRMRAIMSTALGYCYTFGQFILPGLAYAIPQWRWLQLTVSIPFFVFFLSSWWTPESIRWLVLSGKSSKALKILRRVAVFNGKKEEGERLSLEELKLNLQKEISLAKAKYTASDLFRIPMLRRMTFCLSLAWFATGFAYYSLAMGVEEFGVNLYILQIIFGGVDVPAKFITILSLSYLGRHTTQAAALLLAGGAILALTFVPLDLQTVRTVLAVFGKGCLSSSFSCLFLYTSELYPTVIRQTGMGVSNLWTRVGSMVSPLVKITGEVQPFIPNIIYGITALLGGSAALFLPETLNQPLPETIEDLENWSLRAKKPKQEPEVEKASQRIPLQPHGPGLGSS

MRP4 = experiment: Intracellular accumulation of UTs in MRP4-overexpressing cells; type: cell-based, human; details: 100 μM, 30 min; for intracellular accumulation in MRP4-overexpressing cells vs control cells: 37 °C, 4 mM ATP
rOATs = rOATs inhibition experiment
[2] = Correlation between biomarkers and cefmetazole pharmacokinetics in rats; type: in vivo; details: for plasma concentrations in rats treated with PROB: PROB 60 and 120 mg/kg 7 days, cefmetazole 100 mg/kg i.v.
[3] = cited from earlier work
serum protein = experiment: Protein-binding ratio of UTs in rat serum; type: in vitro ADME, rats; details: ultrafiltration at 37 °C
OAT1 [4] = target: T1, OAT1; experiment: Transport kinetics of UTs in HEK293T-OAT1 cells; type: cell-based; details: HEK293T-OAT1/3 cells, 100 μM
OAT4 = experiment: Specificity: uptake in OAT4-overexpressing cells; type: cell-based
rMRP4 [5] = type: in vivo, rats
rOAT1/3 = experiment: rOAT1/3−/− rat experiment; type: in vivo, rats; details: for renal elimination in rOAT1/3−/− rats: Fig. S7F
rMRP4 [6] = type: in vivo, rats; details: rat, in vivo
[7] = type: in vivo, rats; details: rats
[8] = system: OAT1/3 and MRP4 double-transfected MDCK cells
HSA = details: 4% HSA, about 100 μM UT, 37 °C, 2 h; cited from earlier work
[9] = system: OAT1/3-MRP4 double-transfected MDCK cells; experiment: Transcellular transport in OAT1/3-MRP4 double-transfected MDCK cells; type: cell-based
[10] = substrate: CCCc1oc(CCC(=O)O)c(C(=O)O)c1C; experiment: Transport kinetics of UTs in HEK293T-OAT3 cells; type: cell-based, human; details: other: HEK293T-OAT3, Michaelis-Menten
[11] = substrate: O=C(O)c1cc(=O)c2ccccc2[nH]1; experiment: Transport kinetics of UTs in HEK293T-OAT3 cells; type: cell-based, human; details: other: HEK293T-OAT3, Michaelis-Menten
[12] = substrate: CCCc1oc(CCC(=O)O)c(C(=O)O)c1C; experiment: Transport kinetics of UTs in HEK293T-OAT1 cells; type: cell-based, human; details: other: HEK293T-OAT1, Michaelis-Menten
[13] = substrate: O=C(O)c1cc(=O)c2ccccc2[nH]1; experiment: Transport kinetics of UTs in HEK293T-OAT1 cells; type: cell-based, human; details: other: HEK293T-OAT1, Michaelis-Menten
[14] = PROB 30, 60, 120 mg/kg oral, 7 days

- Protein-binding ratio, Normal rats in vivo (%) (n = 6) (serum protein): less than 24%
Molecule: CN(C)c1nc2c(ncn2[C@@H]2O[C@H](CO)[C@@H](O)[C@H]2O)c(=O)[nH]1 [N, N-dimethylguanosine, N,N-dimethylguanosine]
- Protein-binding ratio, HSA binding in vitro (%) (n = 3) (HSA): below 50%

- Protein-binding ratio, Normal rats in vivo (%) (n = 6) (serum protein): less than 24%
Molecule: O=c1[nH]cc([C@@H]2O[C@H](CO)[C@@H](O)[C@H]2O)c(=O)[nH]1 [Pseudouridine, pseudouridine]
- Protein-binding ratio, HSA binding in vitro (%) (n = 3) (HSA): below 50%

- Protein-binding ratio, Normal rats in vivo (%) (n = 6) (serum protein): less than 24%
Molecule: O=C(O)c1cc(=O)[nH]c(=O)[nH]1 [Orotic acid, orotic acid]
- Protein-binding ratio, HSA binding in vitro (%) (n = 3) (HSA): below 50%

Continued, molecule first:

Molecule: O=C(O)c1cc(O)c2cccc(O)c2n1 [xanthurenic, xanthurenic acid]
- uptake of free UT in OAT1-overexpressing cells vs control cells (OAT1 [1]; 37 °C): mediated by OAT1 and OAT3
- uptake of free UT in OAT3-overexpressing cells vs control cells (OAT3): mediated by OAT1 and OAT3
- intracellular accumulation in MRP4-overexpressing cells vs control cells (MRP4): efflux by MRP4
- serum level in vivo (detectability by LC-MS/MS) (rOATs; rats / in vivo): below the lowest detection limit

Molecule: CO[C@@]1(NC(=O)CSCC#N)C(=O)N2C(C(=O)O)=C(CSc3nnnn3C)CS[C@@H]21 [cefmetazole, reference compound]
- plasma concentrations in rats treated with PROB [2]: increased
- cmax in WT rats given 100 mg/kg vs KO rats given 60 mg/kg ([2]; i.p., 7 consecutive days): close to
- renal tubular secretion [3]: about 40%

Molecule: CCCc1oc(CCC(=O)O)c(C(=O)O)c1C [CMPF, 3-carboxy-4-methyl-5-propyl-2-furanpropanoic acid]
- Protein-binding ratio, Normal rats in vivo (%) (n = 6) (serum protein): > 90%
- uptake at 4 °C in OAT1-overexpressing cells vs control (OAT1 [1]; 4 °C): not significantly different
- uptake of HSA-bound UT in OAT1-overexpressing cells vs control cells (OAT1 [1]; 37 °C, with HSA): dramatically increased
- uptake of free UT in OAT1-overexpressing cells vs control cells (OAT1 [1]; 37 °C): dramatically increased; also recorded: markedly higher
- uptake at 4 °C in OAT3-overexpressing cells vs control (OAT3; 4 °C): not significantly different
- uptake of HSA-bound UT in OAT3-overexpressing cells vs control cells (OAT3): dramatically increased
- uptake of free UT in OAT3-overexpressing cells vs control cells (OAT3): dramatically increased; also recorded: markedly higher
- uptake at 4 °C in MRP4-overexpressing cells vs control (MRP4; 4 °C): not significantly different
- intracellular accumulation in MRP4-overexpressing cells vs control cells (MRP4): significantly decreased
- linear uptake time (OAT1 [4]): 0 to 10 min
- transport mediated by OAT4 / uptake in OAT4-overexpressing cells vs control (OAT4): significantly higher
- levels in renal tissues in rats treated with MK-571 vs control (rMRP4 [5]; MK-571 5, 10, 20 mg/kg oral, 7 days): significantly increased
- cumulative urinary excretion in rats treated with MK-571 vs control (rMRP4 [5]; MK-571 (CMPF effect at 20 mg/kg)): significantly decreased
- renal clearance rate in rOAT1/3−/− rats vs WT (rOAT1/3; rat, in vivo): significantly decreased
- renal tissue uptake ratio in rOAT1/3−/− rats vs WT (rOAT1/3; rat, in vivo): significantly decreased
- serum levels in rOAT1/3−/− rats vs WT (rOAT1/3; rat, in vivo): significantly increased
- renal clearance rate in rMRP4−/− rats vs WT (rMRP4 [6]): did not change significantly
- renal tissue concentration in rMRP4−/− rats vs WT (rMRP4 [6]): significantly elevated
- serum levels in rMRP4−/− rats vs WT (rMRP4 [6]): did not change significantly
- renal excretion with MK-571 vs control ([7]; MK-571 20 mg/kg): did not affect
- renal excretion with PROB vs control ([7]; PROB 60 mg/kg): did not affect
- uptake at 4 °C in OAT1/3 and MRP4 double-transfected cells ([8]; 4 °C): no significant difference
- uptake at 37 °C in OAT1-MRP4 cells vs double control cells ([8]; 37 °C): significantly increased
- uptake at 37 °C in OAT3-MRP4 cells vs double control cells ([8]; 37 °C): significantly increased
- cumulative urinary excretion in rats treated with PROB vs control (rOATs; 12 h urine): no significant effects
- renal uptake ratios in rats treated with PROB vs control (rOATs; [14]): decreased
- serum levels in rats treated with PROB vs control (rOATs; [14]): increased

Molecule: CN1CC(=O)NC1=N [Creatinine, creatinine]
- Protein-binding ratio, Normal rats in vivo (%) (n = 6) (serum protein): less than 24%
- renal elimination in rOAT1/3−/− rats (rOAT1/3): unaffected
- renal clearance rate in rMRP4−/− rats vs WT (rMRP4 [6]): not significantly altered
- renal uptake ratio in rMRP4−/− rats vs WT (rMRP4 [6]): not significantly altered
- serum levels in rMRP4−/− rats vs WT (rMRP4 [6]): not significantly altered
- plasma concentrations in rats treated with PROB [2]: did not change significantly
- Protein-binding ratio, HSA binding in vitro (%) (n = 3) (HSA): below 50%

Molecule: CN(C)C(=O)CCSC(SCCC(=O)O)c1cccc(/C=C/c2ccc3ccc(Cl)cc3n2)c1 (centres unmarked) [MK-571, reference compound]
- effect on B to A transmembrane transport of CMPF [9]: substantially inhibited
- effect on B−A transport of kynurenic acid [9]: significantly reduced
- serum creatinine and urea nitrogen levels (rMRP4 [5]; rats, 20 mg/kg oral, 7 days): significantly increased
- pathological changes in the kidneys (rMRP4 [5]; rats, different doses, H&E staining): No significant pathological changes

Molecule: O=C(O)CNC(=O)c1ccccc1 [Hippuric acid, hippuric acid]
- uptake of HSA-bound UT in OAT3-overexpressing cells vs control cells (OAT3): dramatically increased
- uptake of free UT in OAT3-overexpressing cells vs control cells (OAT3): dramatically increased
- intracellular accumulation in MRP4-overexpressing cells vs control cells (MRP4): slightly decreased
- renal elimination in rOAT1/3−/− rats (rOAT1/3): substantially inhibited
- serum levels in rats treated with PROB vs control (rOATs; [14]): no significant change

B1: OAT3 (Homo sapiens) (protein)
chain: T2 sequence (Q8TCC7 1-542)
- Km [10]: 447.1 µM
- Vmax [10]: 133.2 pmol/mg protein/min
- Km [11]: 382.2 µM

B2: OAT1 (Homo sapiens) (protein)
chain: T1 sequence (Q4U2R8 1-563)
- Km [12]: 1,483 μM
- Vmax [12]: 323 pmol/mg protein/min
- Km [13]: 496.7 µM
